From patent publication US8993638B2, “Brominated nitroalkanol compositions and their use as biocides” (Dow Global Technologies LLC, priority 2009, dated 2015)

How the values were obtained:
[1] = tested on: oil field isolated anaerobic SRB consortium; experiment: Biocidal efficacy (MBC) against SRB, 40° C. for 24 hour; type: cell-based, sulfate reducing bacteria (SRB); conditions: alone or in the combination, minimum tested biocide concentration for bacteria kill, 10^6 to 10^7 CFU/mL
Experimental: The synergy indexes reported in the following examples are calculated using the following equation: Synergy Index=Ca/CA+Cb/CB where Ca: Concentration of biocide A required to achieve a certain level or complete bacterial kill when used in combination; CA: Concentration of biocide A required to achieve a certain level or complete bacterial kill when used alone; Cb: Concentration of biocide B required to achieve a certain level or complete bacterial kill when used in combination; and CB: Concentration of biocide B required to achieve a certain level or complete bacterial kill when used alone. A synergy index (SI) of 1 indicates additivity, a synergy index of less than 1 indicates synergy, and a synergy index greater than 1 indicates antagonism. Various methods known to those skilled in the art can be used for evaluating biocidal efficacy. In the examples below, aliquots of the biocide-treated samples are removed at predetermined time points and the biocide concentration required to achieve a certain level or complete bacterial kill is determined by culture-based methods including serial dilution. […] After the mixtures are incubated at 40° C. for 24 hour, the biocidal efficacy is determined by minimum tested biocide concentration for bacteria kill in the aliquots (MBC). […]

oilfield SRB consortium = experiment: Biocidal efficacy against SRB under high temperature and sulfide-rich conditions; type: cell-based, sulfate reducing bacteria (SRB); conditions: alone or in the combination, 80° C. anaerobic, daily challenge with SRB and 10 ppm sulfide
Experimental: The synergy indexes reported in the following examples are calculated using the following equation: Synergy Index=Ca/CA+Cb/CB where Ca: Concentration of biocide A required to achieve a certain level or complete bacterial kill when used in combination; CA: Concentration of biocide A required to achieve a certain level or complete bacterial kill when used alone; Cb: Concentration of biocide B required to achieve a certain level or complete bacterial kill when used in combination; and CB: Concentration of biocide B required to achieve a certain level or complete bacterial kill when used alone. […] In the examples below, aliquots of the biocide-treated samples are removed at predetermined time points and the biocide concentration required to achieve a certain level or complete bacterial kill is determined by culture-based methods including serial dilution. […] After incubation for 2 h the biocidal efficacy is evaluated against the field SRB consortium at 40° C. for 2 h. After incubation for 7 days the biocidal efficacy are evaluated again for 24 h. The biocidal efficacy is determined by the lowest testing biocide dosage concentration required to achieve a 3 log 10 or greater bacterial reduction, of both 2 hours and 7 days heat and SRB-sulfide exposure. Synergy Index is then calculated. […]

Row | Structure (SMILES) | MBC (active ppm) BNPD ([1]; concentration of BNPD) [active ppm] | Dosage required for 3log10 bacterial reduction of both 2 h and 7 day heat and SRB-sulfide exposure (active ppm) BNPD (oilfield SRB consortium; concentration of BNPD) [active ppm] | MBC (active ppm) TA ([1]; concentration of TA) [active ppm] | Dosage required for 3log10 bacterial reduction of both 2 h and 7 day heat and SRB-sulfide exposure (active ppm) TA (oilfield SRB consortium; concentration of TA) [active ppm]
1 | O=[N+]([O-])C(Br)(CO)CO [1:0, 2-bromo-2-nitro-1,3-propanediol] | 3.5 | 180.0 |  | 
2 | O=[N+]([O-])C(CO)(CO)CO [0:1, tris(hydroxymethyl)nitromethane] |  |  | 36.5 | 360.0
